Laboratory results from US20230085307A1, “PYRIDAZINONE COMPOUND AND HERBICIDE” (NISSAN CHEMICAL CORPORATION, priority 2019, published 2023).

How the values were obtained:
barnyard grass [1] = test: Test Example 3: herbicidal effect by foliage application, Wagner pot (Table 18, symbol H); format: in vivo, barnyard grass (Echinochloa crus-galli); settings: 320 g/ha
Method in brief: (§1)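 Plants were sown in alluvial soil held under 0.1–0.5 cm standing water and grown 14 days in a greenhouse at 25–30 °C. An emulsifiable formulation, water-diluted to the set dose, was then sprayed onto the foliage, and effects were scored three weeks later using previously defined criteria.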

Chinese sprangletop = test: Test Example 3: herbicidal effect by foliage application, Wagner pot (Table 18, symbol D); format: in vivo, chinese sprangletop (Leptochloa chinensis); settings: 320 g/ha
Method in brief: as §1

rice flat sedge = test: Test Example 3: herbicidal effect by foliage application, Wagner pot (Table 18, symbol E); format: in vivo, rice flat sedge (Cyperus iria); settings: 320 g/ha
Method in brief: as §1

southern crabgrass [2] = test: Test Example 4: herbicidal effect by soil treatment (Table 19, symbol F); format: in vivo, southern crabgrass (Digitaria ciliaris); settings: AAH 320 g/ha
Method in brief: (§2)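 Pre-emergence style soil spray: seeds under ~1.5 cm sterilized diluvial soil received a uniform coat of emulsion diluted to the predetermined herbicide amount. Greenhouse 25–30° C; readout at week three on previously defined criteria.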

green foxtail [3] = test: Test Example 4: herbicidal effect by soil treatment (Table 19, symbol G); format: in vivo, green foxtail (Setaria viridis); settings: AAH 320 g/ha
Method in brief: as §2

barnyard grass [4] = test: Test Example 4: herbicidal effect by soil treatment (Table 19, symbol H); format: in vivo, barnyard grass (Echinochloa crus-galli); settings: AAH 320 g/ha
Method in brief: as §2

wild oat [5] = test: Test Example 4: herbicidal effect by soil treatment (Table 19, symbol I); format: in vivo, wild oat (Avena fatua); settings: AAH 320 g/ha
Method in brief: as §2

blackgrass [6] = test: Test Example 4: herbicidal effect by soil treatment (Table 19, symbol J); format: in vivo, blackgrass (Alopecurus myosuroides); settings: AAH 320 g/ha
Method in brief: as §2

Italian ryegrass [7] = test: Test Example 4: herbicidal effect by soil treatment (Table 19, symbol K); format: in vivo, Italian ryegrass (Lolium multiflorum); settings: AAH 320 g/ha
Method in brief: as §2

windgrass [8] = test: Test Example 4: herbicidal effect by soil treatment (Table 19, symbol L); format: in vivo, windgrass (Apera spica-venti); settings: AAH 320 g/ha
Method in brief: as §2

velvetleaf [9] = test: Test Example 4: herbicidal effect by soil treatment (Table 19, symbol M); format: in vivo, velvetleaf (Abutilon theophrasti); settings: AAH 320 g/ha
Method in brief: as §2

redroot pigweed [10] = test: Test Example 4: herbicidal effect by soil treatment (Table 19, symbol N); format: in vivo, redroot pigweed (Amaranthus retroflexus); settings: AAH 320 g/ha
Method in brief: as §2

lambsquarters [11] = test: Test Example 4: herbicidal effect by soil treatment (Table 19, symbol O); format: in vivo, lambsquarters (Chenopodium album); settings: AAH 320 g/ha
Method in brief: as §2

chickweed [12] = test: Test Example 4: herbicidal effect by soil treatment (Table 19, symbol P); format: in vivo, common chickweed (Stellaria media); settings: AAH 320 g/ha
Method in brief: as §2

false cleavers = test: Test Example 4: herbicidal effect by soil treatment (Table 19, symbol Q); format: in vivo, false cleavers (Galium spurium); settings: AAH 320 g/ha
Method in brief: as §2

persian speedwell [13] = test: Test Example 4: herbicidal effect by soil treatment (Table 19, symbol R); format: in vivo, Persian speedwell (Veronica persica); settings: AAH 320 g/ha
Method in brief: as §2

southern crabgrass [14] = test: Test Example 5: herbicidal effect by foliage application, plastic box (Table 20, symbol F); format: in vivo, southern crabgrass (Digitaria ciliaris); settings: foliage application, AAH 320 g/ha, three weeks after application
Method in brief: (§3)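 Plants were sown into sterilized diluvial soil under about 1.5 cm cover and kept in a greenhouse at 25° C. to 30° C. Fourteen days on, foliage received an even spray of the diluted emulsion. Herbicidal or crop effect was judged three weeks afterwards.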

green foxtail [15] = test: Test Example 5: herbicidal effect by foliage application, plastic box (Table 20, symbol G); format: in vivo, green foxtail (Setaria viridis); settings: foliage application, AAH 320 g/ha, three weeks after application
Method in brief: as §3

barnyard grass [16] = test: Test Example 5: herbicidal effect by foliage application, plastic box (Table 20, symbol H); format: in vivo, barnyard grass (Echinochloa crus-galli); settings: foliage application, AAH 320 g/ha, three weeks after application
Method in brief: as §3

wild oat [17] = test: Test Example 5: herbicidal effect by foliage application, plastic box (Table 20, symbol I); format: in vivo, wild oat (Avena fatua); settings: foliage application, AAH 320 g/ha, three weeks after application
Method in brief: as §3

blackgrass [18] = test: Test Example 5: herbicidal effect by foliage application, plastic box (Table 20, symbol J); format: in vivo, blackgrass (Alopecurus myosuroides); settings: foliage application, AAH 320 g/ha, three weeks after application
Method in brief: as §3

Italian ryegrass [19] = test: Test Example 5: herbicidal effect by foliage application, plastic box (Table 20, symbol K); format: in vivo, Italian ryegrass (Lolium multiflorum); settings: foliage application, AAH 320 g/ha, three weeks after application
Method in brief: as §3

windgrass [20] = test: Test Example 5: herbicidal effect by foliage application, plastic box (Table 20, symbol L); format: in vivo, windgrass (Apera spica-venti); settings: foliage application, AAH 320 g/ha, three weeks after application
Method in brief: as §3

velvetleaf [21] = test: Test Example 5: herbicidal effect by foliage application, plastic box (Table 20, symbol M); format: in vivo, velvetleaf (Abutilon theophrasti); settings: foliage application, AAH 320 g/ha, three weeks after application
Method in brief: as §3

redroot pigweed [22] = test: Test Example 5: herbicidal effect by foliage application, plastic box (Table 20, symbol N); format: in vivo, redroot pigweed (Amaranthus retroflexus); settings: foliage application, AAH 320 g/ha, three weeks after application
Method in brief: as §3

lambsquarters [23] = test: Test Example 5: herbicidal effect by foliage application, plastic box (Table 20, symbol O); format: in vivo, lambsquarters (Chenopodium album); settings: foliage application, AAH 320 g/ha, three weeks after application
Method in brief: as §3

chickweed [24] = test: Test Example 5: herbicidal effect by foliage application, plastic box (Table 20, symbol P); format: in vivo, common chickweed (Stellaria media); settings: foliage application, AAH 320 g/ha, three weeks after application
Method in brief: as §3

persian speedwell [25] = test: Test Example 5: herbicidal effect by foliage application, plastic box (Table 20, symbol R); format: in vivo, Persian speedwell (Veronica persica); settings: foliage application, AAH 320 g/ha, three weeks after application
Method in brief: as §3

CCCC(=O)Oc1c(OC)nn(C)c(=O)c1-c1c(-c2ccc([N+](=O)[O-])cc2)sc2ccccc12 [1-169]
herbicidal effect on H (barnyard grass), rating 0-5 (barnyard grass [1]): 1 (Herbicidal rate of 5% or more and less than 20%) | herbicidal effect on D (Chinese sprangletop), rating 0-5 (Chinese sprangletop): 0 (Herbicidal rate of 5% or less (almost no effect)) | herbicidal effect on E (rice flat sedge), rating 0-5 (rice flat sedge): 2 (Herbicidal rate of 20% or more and less than 40%) | F: southern crabgrass, herbicidal effect rating (southern crabgrass [2]): 0 (Herbicidal rate of 5% or less (almost no effect)) | G: green foxtail, herbicidal effect rating (green foxtail [3]): 0 (Herbicidal rate of 5% or less (almost no effect)) | H: barnyard grass, herbicidal effect rating (barnyard grass [4]): 0 (Herbicidal rate of 5% or less (almost no effect)) | I: wild oat, herbicidal effect rating (wild oat [5]): 0 (Herbicidal rate of 5% or less (almost no effect)) | J: blackgrass, herbicidal effect rating (blackgrass [6]): 0 (Herbicidal rate of 5% or less (almost no effect)) | K: Italian ryegrass, herbicidal effect rating (Italian ryegrass [7]): 0 (Herbicidal rate of 5% or less (almost no effect)) | L: windgrass, herbicidal effect rating (windgrass [8]): 0 (Herbicidal rate of 5% or less (almost no effect)) | M: velvetleaf, herbicidal effect rating (velvetleaf [9]): 0 (Herbicidal rate of 5% or less (almost no effect)) | N: redroot pigweed, herbicidal effect rating (redroot pigweed [10]): 0 (Herbicidal rate of 5% or less (almost no effect)) | O: lambsquarters, herbicidal effect rating (lambsquarters [11]): 0 (Herbicidal rate of 5% or less (almost no effect)) | P: chickweed, herbicidal effect rating (chickweed [12]): 1 (Herbicidal rate of 5% or more and less than 20%) | Q: false cleavers, herbicidal effect rating (false cleavers): 0 (Herbicidal rate of 5% or less (almost no effect)) | R: persian speedwell, herbicidal effect rating (persian speedwell [13]): 3 (Herbicidal rate of 40% or more and less than 70%) | F: southern crabgrass, herbicidal effect (southern crabgrass [14]): 0 (Herbicidal rate of 5% or less (almost no effect)) | G: green foxtail, herbicidal effect (green foxtail [15]): 0 (Herbicidal rate of 5% or less (almost no effect)) | H: barnyard grass, herbicidal effect (barnyard grass [16]): 0 (Herbicidal rate of 5% or less (almost no effect)) | I: wild oat, herbicidal effect (wild oat [17]): 0 (Herbicidal rate of 5% or less (almost no effect)) | J: blackgrass, herbicidal effect (blackgrass [18]): 0 (Herbicidal rate of 5% or less (almost no effect)) | K: Italian ryegrass, herbicidal effect (Italian ryegrass [19]): 0 (Herbicidal rate of 5% or less (almost no effect)) | L: windgrass, herbicidal effect (windgrass [20]): 0 (Herbicidal rate of 5% or less (almost no effect)) | M: velvetleaf, herbicidal effect (velvetleaf [21]): 0 (Herbicidal rate of 5% or less (almost no effect)) | N: redroot pigweed, herbicidal effect (redroot pigweed [22]): 4 (Herbicidal rate of 70% or more and less than 90%) | O: lambsquarters, herbicidal effect (lambsquarters [23]): 4 (Herbicidal rate of 70% or more and less than 90%) | P: chickweed, herbicidal effect (chickweed [24]): 4 (Herbicidal rate of 70% or more and less than 90%) | R: persian speedwell, herbicidal effect (persian speedwell [25]): 4 (Herbicidal rate of 70% or more and less than 90%)

CCCC(=O)Oc1c(OC)nn(C)c(=O)c1-c1c(-c2ccc(F)c(C)c2)sc2ccccc12 [1-175]
herbicidal effect on H (barnyard grass), rating 0-5 (barnyard grass [1]): 0 (Herbicidal rate of 5% or less (almost no effect)) | herbicidal effect on D (Chinese sprangletop), rating 0-5 (Chinese sprangletop): 0 (Herbicidal rate of 5% or less (almost no effect)) | herbicidal effect on E (rice flat sedge), rating 0-5 (rice flat sedge): 3 (Herbicidal rate of 40% or more and less than 70%) | F: southern crabgrass, herbicidal effect rating (southern crabgrass [2]): 0 (Herbicidal rate of 5% or less (almost no effect)) | G: green foxtail, herbicidal effect rating (green foxtail [3]): 1 (Herbicidal rate of 5% or more and less than 20%) | H: barnyard grass, herbicidal effect rating (barnyard grass [4]): 0 (Herbicidal rate of 5% or less (almost no effect)) | I: wild oat, herbicidal effect rating (wild oat [5]): 0 (Herbicidal rate of 5% or less (almost no effect)) | J: blackgrass, herbicidal effect rating (blackgrass [6]): 0 (Herbicidal rate of 5% or less (almost no effect)) | K: Italian ryegrass, herbicidal effect rating (Italian ryegrass [7]): 2 (Herbicidal rate of 20% or more and less than 40%) | L: windgrass, herbicidal effect rating (windgrass [8]): 1 (Herbicidal rate of 5% or more and less than 20%) | M: velvetleaf, herbicidal effect rating (velvetleaf [9]): 3 (Herbicidal rate of 40% or more and less than 70%) | N: redroot pigweed, herbicidal effect rating (redroot pigweed [10]): 4 (Herbicidal rate of 70% or more and less than 90%) | O: lambsquarters, herbicidal effect rating (lambsquarters [11]): 4 (Herbicidal rate of 70% or more and less than 90%) | P: chickweed, herbicidal effect rating (chickweed [12]): 0 (Herbicidal rate of 5% or less (almost no effect)) | Q: false cleavers, herbicidal effect rating (false cleavers): 0 (Herbicidal rate of 5% or less (almost no effect)) | R: persian speedwell, herbicidal effect rating (persian speedwell [13]): 0 (Herbicidal rate of 5% or less (almost no effect)) | F: southern crabgrass, herbicidal effect (southern crabgrass [14]): 0 (Herbicidal rate of 5% or less (almost no effect)) | G: green foxtail, herbicidal effect (green foxtail [15]): 0 (Herbicidal rate of 5% or less (almost no effect)) | H: barnyard grass, herbicidal effect (barnyard grass [16]): 0 (Herbicidal rate of 5% or less (almost no effect)) | I: wild oat, herbicidal effect (wild oat [17]): 0 (Herbicidal rate of 5% or less (almost no effect)) | J: blackgrass, herbicidal effect (blackgrass [18]): 0 (Herbicidal rate of 5% or less (almost no effect)) | K: Italian ryegrass, herbicidal effect (Italian ryegrass [19]): 0 (Herbicidal rate of 5% or less (almost no effect)) | L: windgrass, herbicidal effect (windgrass [20]): 0 (Herbicidal rate of 5% or less (almost no effect)) | M: velvetleaf, herbicidal effect (velvetleaf [21]): 3 (Herbicidal rate of 40% or more and less than 70%) | N: redroot pigweed, herbicidal effect (redroot pigweed [22]): 0 (Herbicidal rate of 5% or less (almost no effect)) | O: lambsquarters, herbicidal effect (lambsquarters [23]): 0 (Herbicidal rate of 5% or less (almost no effect)) | P: chickweed, herbicidal effect (chickweed [24]): 5 (Herbicidal rate of 90% or more (almost completely withered)) | R: persian speedwell, herbicidal effect (persian speedwell [25]): 4 (Herbicidal rate of 70% or more and less than 90%)
